Laboratory results reported in patent US20040077674A1, “Mappicine analogs, intermediates in the synthesis of mappicine analogs and methods of synthesis of mappicine analogs” (priority 2002, published 2004).

Molecular target: T1, RNase H activity of HIV reverse transcriptase (Human immunodeficiency virus type 1 group M subtype B, UniProt P03366)
T1 construct: 2.5 nM of the p51/p66 RT heterodimer in the assay; made in house
Assay: Fluorescence (FRET)-based RNase H assay of HIV reverse transcriptase
Format: biochemical, HIV-1
Conditions: 20 μM inhibitor concentration
Experimental: Recently, a fluorescence-based assay to perform screens in search of HIV RNase H inhibitors has been developed. The assay, which is carried out in 96-well microplates and is adaptable to robotics, is the first high-throughput screen for RNase H and is described in further detail in the Experimental section. HIV-1 RT and human RNase H were cloned, and thus comparative analysis of inhibitor action could be conducted simultaneously.
The assay for RNase H activity of HIV reverse transcriptase was the fluorescence-based assay described in detail in the Experimental section and discussed in U.S. Provisional Patent Application Serial No. 60/318,359. Assays were carried out in the absence and in the presence of mappicine analogs (10 μM or 20 μM final concentration). The results are reported as % residual activity, which is the RNase H activity of the enzyme in the presence of the mappicine analog divided by the RNase H activity of the enzyme in the absence of the mappicine analog, multiplied by 100. Alternatively, the results are reported as % inhibition, which is calculated as the ratio of the RNase H activity of the enzyme in the presence of the mappicine analog to the enzyme activity in the absence of the mappicine analog, multiplied by 100, and then subtracting this number from 100.
Assay for Ribonuclease H Activity Based on Fluorescence Resonance Energy Transfer (FRET)
Preparation of the Fluorophore-RNA/Quencher-DNA Hybrid Duplex Substrate.
The RNA/DNA hybrid duplex substrate for use in the assay comprises an RNA oligonucleotide of sequence 5′-GAU CUG AGC CUG GGA GCU-3′, modified at the 3′-end with Aminolink-2 and derivatized with fluorescein isothiocyanate, to provide a modified RNA oligonucleotide of the sequence 5′-GAU CUG AGC CUG GGA GCU-fluorescein-3′, annealed to a complementary DNA oligonucleotide of the sequence 5′-AGC TCC CAG GCT CAG ATC-3′ modified at the 5′-end with Aminolink-2 and derivatized with the FRET acceptor DABCYL succinimidyl ester, to provide a modified DNA oligonucleotide of the sequence 5′-DABCYL-AGC TCC CAG GCT CAG ATC-3′.
To prepare the 3′-fluorescein-RNA/5′-DABCYL-DNA hybrid duplex substrate, a known amount of 3′-fluorescein-RNA was dissolved in 20 mM Tris buffer (pH 8.0, 37° C.) to provide a final concentration of 5 μM. Two equivalents of the 5′-DABCYL-DNA oligonucleotide were added, and the mixture was heated to 90° C. for 5 min and cooled slowly to room temperature to allow duplex formation. The positioning of the fluorescein donor at the 3′-end of the RNA oligonucleotide and the DABCYL acceptor at the 5′-end of the DNA oligonucleotide provides a very close proximity of the donor and acceptor that results in a very intense quenching of the fluorescein emission in the intact RNA/DNA hybrid duplex substrate due to the spectral overlap of the fluorescence emission of fluorescein with the absorption spectrum of DABCYL. In addition, DABCYL is non-fluorescent, and thus cannot contribute any light emission. Both of these factors result in a very low background and provide a high signal-to-noise in the assay measurements. The ratio of the donor fluorescence in the absence and in the presence of its quencher is approximately fifteen-fold.
Microplate Assay Protocol for the Measurement of RNase H Activity Using the RNA/IDNA Hybrid Duplex Substrate.
Reaction assay mixtures contained 5 μl of a stock solution of 2.5 μM RNA/DNA hybrid duplex substrate added to 85 μl of assay buffer (50 mM Tris, pH 8.0, 37° C., containing 60 mM KCl and 2.5 mM MgCl2), prepared in the wells of a 96-well fluorescence microtiter plate, and warmed to 37° C. using the temperature control of the SpectraMax Gemini XS microplate spectrofluorometer (Molecular Devices). Reactions were started by the addition of 5 μl of a solution of recombinant HIV-1 reverse transcriptase (usually providing a final concentration of 2.5 nM of the p51/p66 RT heterodimer in the assay), and mixing using the automatic mixing function of the microplate spectrofluorometer. […]

SMILES: CCCCc1c2c(nc3ccc(OC(F)(F)F)cc13)-c1cc(C(C)O)c(C)c(=O)n1C2 (stereo not drawn) [Compound 1.6.7, 12-Butyl-7-(1-hydroxyethyl)-8-methyl-2-trifluoromethoxy-11H-indolizino[1,2-b]quinolin-9-one]
- inhibition at 20 µM: 75%

SMILES: Cc1c(C(C)O)cc2n(c1=O)Cc1c-2nc2ccc(OC(F)(F)F)cc2c1-c1ccccc1 (stereo not drawn) [Compound 1.8.7, 7-(1-Hydroxyethyl)-8-methyl-12-phenyl-2-trifluoromethoxy-11H-indolizino[1,2-b]quinolin-9-one]
- inhibition at 20 µM: 80%

SMILES: Cc1ccc2nc3c(c(-c4ccccc4)c2c1)Cn1c-3cc(C(C)O)c(C)c1=O (stereo not drawn) [Compound 1.8.9, 7-(1-Hydroxyethyl)-2,8-dimethyl-1 2-phenyl-11H-indolizino[1,2-b]quinolin-9-one]
- inhibition at 20 µM: 75%

SMILES: CCCCc1c2c(nc3ccc(OC)cc13)-c1cc(C(O)CCC)c(C)c(=O)n1C2 (stereo not drawn) [Compound 2.6.3]
- % inhibition of RNase H at 20 μM: 67%

SMILES: CCCCCc1c2c(nc3ccc(OC)cc13)-c1cc(C(O)CCC)c(C)c(=O)n1C2 (stereo not drawn) [Compound 2.7.3]
- % inhibition of RNase H at 20 μM: 60%

SMILES: CCCC(O)c1cc2n(c(=O)c1C)Cc1c-2nc2ccccc2c1-c1ccccc1 (stereo not drawn) [Compound 2.8.1, 7-(1-Hydroxybutyl)-8-methyl-12-phenyl-11H-indolizino [1,2-b]quinolin-9-one]
- inhibition at 20 µM: 83%

SMILES: CCCC(O)c1cc2n(c(=O)c1C)Cc1c-2nc2ccc(C)cc2c1-c1ccccc1 (stereo not drawn) [Compound 2.8.9, 7-(1-Hydroxybutyl)-2,8-dimethyl-1 2-phenyl-11H-indolizino[1,2-b]quinolin-9-one]
- inhibition at 20 µM: 78%

SMILES: CCCCc1c2c(nc3ccc(OC)cc13)-c1cc(C(O)CC)c(C)c(=O)n1C2 (stereo not drawn) [Compound 3.6.3]
- % inhibition of RNase H at 20 μM: 66%

SMILES: CCCCc1c2c(nc3ccc(C(F)(F)F)cc13)-c1cc(C(O)CC)c(C)c(=O)n1C2 (stereo not drawn) [Compound 3.6.4]
- % inhibition of RNase H at 20 μM: 62%

SMILES: CCCCCc1c2c(nc3c(F)cccc13)-c1cc(C(O)CC)c(C)c(=O)n1C2 (stereo not drawn) [Compound 3.7.8, 4-Fluoro-7-(1-hydroxypropyl)-8-methyl-12-pentyl-1 1H-indolizino [1,2-b]quinolin-9-one]
- inhibition at 20 µM: 82%

SMILES: CCCCCc1c2c(nc3ccc(C)cc13)-c1cc(C(O)CC)c(C)c(=O)n1C2 (stereo not drawn) [Compound 3.7.9, 7-(1-Hydroxypropyl)-2,8-dimethyl-1 2-pentyl-11H-indolizino[1,2-b]quinolin-9-one]
- inhibition at 20 µM: 75%

SMILES: CCC(O)c1cc2n(c(=O)c1C)Cc1c-2nc2ccccc2c1-c1ccccc1 (stereo not drawn) [Compound 3.8.1]
- % inhibition of RNase H at 20 μM: 74%

SMILES: CCC(C)C(O)c1cc2n(c(=O)c1C)Cc1cc3cc(OC(F)(F)F)ccc3nc1-2 (stereo not drawn) [Compound 4.1.7]
- % inhibition of RNase H at 20 μM: 55%

SMILES: CCc1c2c(nc3ccc(C)cc13)-c1cc(C(O)C(C)CC)c(C)c(=O)n1C2 (stereo not drawn) [Compound 4.4.9]
- % inhibition of RNase H at 20 μM: 60%

SMILES: CCCc1c2c(nc3c(F)cccc13)-c1cc(C(O)C(C)CC)c(C)c(=O)n1C2 (stereo not drawn) [Compound 4.5.8]
- % inhibition of RNase H at 20 μM: 55%

SMILES: CCCCCc1c2c(nc3ccc(F)cc13)-c1cc(C(O)C(C)CC)c(C)c(=O)n1C2 (stereo not drawn) [Compound 4.7.2]
- % inhibition of RNase H at 20 μM: 58%

SMILES: CCCCCc1c2c(nc3ccc(OC)cc13)-c1cc(C(O)C(C)CC)c(C)c(=O)n1C2 (stereo not drawn) [Compound 4.7.3]
- % inhibition of RNase H at 20 μM: 60%

SMILES: CCCCCc1c2c(nc3ccc(C(F)(F)F)cc13)-c1cc(C(O)C(C)CC)c(C)c(=O)n1C2 (stereo not drawn) [Compound 4.7.4]
- % inhibition of RNase H at 20 μM: 55%

SMILES: CCCCCc1c2c(nc3ccc(CC)cc13)-c1cc(C(O)C(C)CC)c(C)c(=O)n1C2 (stereo not drawn) [Compound 4.7.5, 2-Ethyl-7-(1-hydroxy-2-methylbutyl)-8-methyl-1 2-pentyl-11H-indolizino[1,2-b]quinolin-9-one]
- inhibition at 20 µM: 100%

SMILES: CCC(C)C(O)c1cc2n(c(=O)c1C)Cc1c-2nc2ccccc2c1-c1ccccc1 (stereo not drawn) [Compound 4.8.1, 7-(1-Hydroxy-2-methylbutyl)-8-methyl-1 2-phenyl-11H-indolizino[1,2-b]quinolin-9-one]
- inhibition at 20 µM: 80%

SMILES: CCC(C)C(O)c1cc2n(c(=O)c1C)Cc1c-2nc2ccc(C(F)(F)F)cc2c1-c1ccccc1 (stereo not drawn) [Compound 4.8.4]
- % inhibition of RNase H at 20 μM: 74%

SMILES: CCC(C)C(O)c1cc2n(c(=O)c1C)Cc1c-2nc2ccc(C)cc2c1-c1ccccc1 (stereo not drawn) [Compound 4.8.9]
- % inhibition of RNase H at 20 μM: 55%

SMILES: CCc1c2c(nc3ccc(C(F)(F)F)cc13)-c1cc(C(O)C(C)C)c(C)c(=O)n1C2 (stereo not drawn) [Compound 5.4.4, 1 2-Ethyl-7-(1-hydroxy-2-methylpropyl)-8-methyl-2-trifluoromethyl-11H-indolizino[1,2-b]quinolin-9-one]
- inhibition at 20 µM: 87%

SMILES: CCCCc1c2c(nc3c1cn1c(=O)c(C)c(C(O)C(C)C)cc31)=CC=C(OC)C2 (stereo not drawn) [Compound 5.6.3, 12-Butyl-7-(1-hydroxy-2-methylpropyl)-2-methoxy-8-methyl-1H-indolizino[1,2-b]quinolin-9-one]
- inhibition at 20 µM: 90%

SMILES: CCCCc1c2c(nc3ccc(CC)cc13)-c1cc(C(O)C(C)C)c(C)c(=O)n1C2 (stereo not drawn) [Compound 5.6.5]
- % inhibition of RNase H at 20 μM: 100%

SMILES: Cc1ccc2nc3c(c(-c4ccccc4)c2c1)Cn1c-3cc(C(O)C(C)C)c(C)c1=O (stereo not drawn) [Compound 5.8.9]
- % inhibition of RNase H at 20 μM: 69%

SMILES: Cc1ccc2nc3c(cc2c1)Cn1c-3cc(C(O)C2CCCCC2)c(C)c1=O (stereo not drawn) [Compound 6.1.9]
- % inhibition of RNase H at 20 μM: 65%

SMILES: CCc1c2c(nc3ccccc13)-c1cc(C(O)C3CCCCC3)c(C)c(=O)n1C2 (stereo not drawn) [Compound 6.4.1]
- % inhibition of RNase H at 20 μM: 65%

SMILES: CCc1c2c(nc3ccc(F)cc13)-c1cc(C(O)C3CCCCC3)c(C)c(=O)n1C2 (stereo not drawn) [Compound 6.4.2]
- % inhibition of RNase H at 20 μM: 75%

SMILES: CCc1c2c(nc3ccc(OC)cc13)-c1cc(C(O)C3CCCCC3)c(C)c(=O)n1C2 (stereo not drawn) [Compound 6.4.3]
- % inhibition of RNase H at 20 μM: 60%

SMILES: CCc1c2c(nc3ccc(C(F)(F)F)cc13)-c1cc(C(O)C3CCCCC3)c(C)c(=O)n1C2 (stereo not drawn) [Compound 6.4.4]
- % inhibition of RNase H at 20 μM: 65%

SMILES: CCCCCc1c2c(nc3ccccc13)-c1cc(C(O)C3CCCCC3)c(C)c(=O)n1C2 (stereo not drawn) [Compound 6.7.1]
- % inhibition of RNase H at 20 μM: 71%

SMILES: CCCCCc1c2c(nc3ccc(F)cc13)-c1cc(C(O)C3CCCCC3)c(C)c(=O)n1C2 (stereo not drawn) [Compound 6.7.2, 7-(Cyclohexylhydroxymethyl)-2-fluoro-8-methyl-12-pentyl-11H-indolizino[1,2-b]quinolin-9-one]
- inhibition at 20 µM: 76%

SMILES: CCCCCc1c2c(nc3ccc(OC)cc13)-c1cc(C(O)C3CCCCC3)c(C)c(=O)n1C2 (stereo not drawn) [Compound 6.7.3]
- % inhibition of RNase H at 20 μM: 65%

SMILES: CCCCCc1c2c(nc3ccc(C(F)(F)F)cc13)-c1cc(C(O)C3CCCCC3)c(C)c(=O)n1C2 (stereo not drawn) [Compound 6.7.4]
- % inhibition of RNase H at 20 μM: 70%

SMILES: Cc1c(C(O)C2CCCCC2)cc2n(c1=O)Cc1c-2nc2ccc(C(F)(F)F)cc2c1-c1ccccc1 (stereo not drawn) [Compound 6.8.4, 7-(Cyclohexylhydroxymethyl)-8-methyl-12-phenyl-2-trifluoromethyl-11H-indolizino[1,2-b]quinolin-9-one]
- inhibition at 20 µM: 81%

SMILES: Cc1c(C(O)C2CCCCC2)cc2n(c1=O)Cc1c-2nc2ccc(OC(F)(F)F)cc2c1-c1ccccc1 (stereo not drawn) [Compound 6.8.7, 7-(Cyclohexylhydroxymethyl)-8-methyl-1 2-phenyl-2-trifluoromethoxy-11H-indolizino[1,2-b]quinolin-9-one]
- inhibition at 20 µM: 87%

SMILES: CCc1c2c(nc3c(F)cccc13)-c1cc(C(O)CCC3CCCCC3)c(C)c(=O)n1C2 (stereo not drawn) [Compound 7.4.8]
- % inhibition of RNase H at 20 μM: 95%

SMILES: CCCc1c2c(nc3c(F)cccc13)-c1cc(C(O)CCC3CCCCC3)c(C)c(=O)n1C2 (stereo not drawn) [Compound 7.5.8]
- % inhibition of RNase H at 20 μM: 82%
